In paper PMC9381564 (Plant and Cell Physiology, 2022):

Molecular target: T1, SoGDH (spinach L-galactose dehydrogenase) (Spinacia oleracea, UniProt Q6BDJ2)
T1 sequence (Q6BDJ2 1-322): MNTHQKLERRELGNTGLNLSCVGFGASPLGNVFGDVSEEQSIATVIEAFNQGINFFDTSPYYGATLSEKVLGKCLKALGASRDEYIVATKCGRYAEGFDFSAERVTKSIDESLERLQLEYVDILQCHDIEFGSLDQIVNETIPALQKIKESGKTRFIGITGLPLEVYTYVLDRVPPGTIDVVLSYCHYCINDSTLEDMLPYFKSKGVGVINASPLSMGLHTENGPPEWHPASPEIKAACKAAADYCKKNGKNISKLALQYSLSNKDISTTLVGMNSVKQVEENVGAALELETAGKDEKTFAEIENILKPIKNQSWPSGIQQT
Test: X-ray crystal structure, co-crystallisation, […] A
Format: binding
Settings: 5 mM NAD+, 1 mM L-galactose in drop, Bis-Tris pH 5.5

Q: How did the “X-ray crystal structure, co-crystallisation, 1.75 A” value turn out when `NC(=O)c1ccc[n+]([C@@H]2O[C@H](COP(=O)(O)OP(=O)(O)OC[C@H]3O[C@@H](n4cnc5c(N)ncnc54)[C@H](O)[C@@H]3O)[C@@H](O)[C@H]2O)c1` [NAD^+] was run?
A: crystals of SoGDH complexed with the cofactor NAD^+ were obtained using co-crystallization
